Experimental data as given in patent US11014920B2, “Factor XIIa inhibitors” (Merck Sharp & Dohme Corp., priority 2016, dated 2021).

biological target: purified human Factor XIIa (Homo sapiens (Human), UniProt P00748); experiment: Factor XIIa assay; type: biochemical; details: substrate n-Acetyl-Lys-Pro-Arg-AFC 100 μM, pH 7.4, read-out: FXIIa IC50
Experimental: “FXIIa IC50(nm)” is Human Factor XIIa IC50 (nm).
The effectiveness of a compound of the present invention as an inhibitor of Coagulation Factor XIIa can be determined using a relevant purified serine protease, and an appropriate synthetic substrate. The rate of hydrolysis of the chromogenic or fluorogenic substrate by the relevant serine protease was measured both in the absence and presence of compounds of the present invention. Assays were conducted at room temperature or at 37° C. […] A decrease in the rate of fluorescence change in the presence of inhibitor is indicative of enzyme inhibition. Such methods are known to one skilled in the art. The results of this assay are expressed as the IC50, the inhibitor concentration causing a 50% decrease in Factor XIIa protease activity.
Factor XIIa activity determinations were made in 50 mM HEPES buffer containing 150 mM NaCl, 5 mM CaCl2, and 0.1% PEG 8000 (polyethylene glycol; JT Baker or Fisher Scientific) at pH 7.4. Determinations were made using purified human Factor XIIa at a final concentration of […] (Sekisui Diagnostics) and the synthetic substrate, n-Acetyl-Lys-Pro-Arg-AFC, TFA salt (Sigma # C6608) at a concentration of 100 μM.
Times required to achieve equilibration between enzyme and inhibitor were determined in control experiments. Initial velocities of product formation in the absence (Vo) or presence of inhibitor (Vi) were measured.

purified human Factor XIIa, sequence (P00748 373-615): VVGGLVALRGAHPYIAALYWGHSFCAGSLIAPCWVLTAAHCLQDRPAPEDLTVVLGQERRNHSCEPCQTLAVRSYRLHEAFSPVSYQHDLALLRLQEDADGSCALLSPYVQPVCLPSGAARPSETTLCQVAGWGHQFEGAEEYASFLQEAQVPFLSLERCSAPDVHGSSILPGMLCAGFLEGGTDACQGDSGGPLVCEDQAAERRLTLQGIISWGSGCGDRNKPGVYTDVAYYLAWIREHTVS
purified human Factor XIIa, sequence (P00748 20-372 partner): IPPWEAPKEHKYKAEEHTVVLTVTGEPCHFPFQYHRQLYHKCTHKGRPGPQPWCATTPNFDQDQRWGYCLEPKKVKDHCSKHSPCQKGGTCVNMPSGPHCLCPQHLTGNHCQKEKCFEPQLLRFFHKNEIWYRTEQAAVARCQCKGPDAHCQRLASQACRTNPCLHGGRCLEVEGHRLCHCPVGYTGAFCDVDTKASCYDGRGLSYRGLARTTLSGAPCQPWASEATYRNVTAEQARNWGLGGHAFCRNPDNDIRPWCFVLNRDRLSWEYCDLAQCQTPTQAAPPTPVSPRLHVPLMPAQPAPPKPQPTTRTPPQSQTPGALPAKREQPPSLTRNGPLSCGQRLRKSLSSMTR

SMILES | IC50
O=C(NCc1cccs1)[C@H]1CN(C(=O)[C@@H](CCCCNS(=O)(=O)C2CC2)NC2CCCCC2)CC[C@H]1NC(=O)N1CCC2(CC1)CC2 [Compound 19, N-{(3S,4R)-1-[N~2~- cyclohexyl-N~6~- (cyclopropylsulfonyl)-D-lysyl]-3-[(thiophen-2-ylmethyl)carbamoyl]pi-peridin-4-yl}-6-azaspiro[2.5]octane-6-carboxamide] | 43.1 nM
Cc1cnc(C(=O)N[C@@H]2CCN(C(=O)[C@@H](CC3CCCCC3)NC3CCCCC3)C[C@@H]2C(=O)NCc2ccc3[nH]cc(Cl)c3c2)s1 [Compound 1, (3S,4R)-N-[(3-chloro-1H-indol-5-yl)methyl]-1-(N,3-dicyclohexyl-D-alanyl)-4-{[(5-methyl-1,3-thiazol-2-yl)carbonyl]amino}pi-peridine-3-carboxamide] | 49.2 nM
NCCCC[C@@H](NC1CCCCC1)C(=O)N1CC[C@@H](NC(=O)N2CCC3(CC2)CC3)[C@@H](C(=O)NCc2ccc(CN)cc2)C1 [Compound 14, N-[(3S,4R)-3-{[4-(amino-methyl)benzyl]carbamoyl}-1-(N~2~-cyclohexyl-D-lysyl)piperidin-4-yl]-6-azaspiro[2.5]octane-6-carboxamide] | 18.7 nM
O=C(NCc1cccs1)[C@H]1CN(C(=O)[C@@H](CC2CCCCC2)NC2CCCCC2)CC[C@H]1NC(=O)N1CCCC2(CCNC2=O)C1 (stereo partly drawn) [Compound 36, N-((3S,4R)-1-((R)-3-cyclohexyl-2-(cyclohexylamino)pro-panoyl)-3-((thiophen-2-ylmethyl)carbamoyl)pi-peridin-4-yl)-1-oxo-2,7-diazaspiro[4.5]decane-7-carboxamide] | 428 nM
NCCCC[C@@H](NC1CCCCC1)C(=O)N1CC[C@@H](NC(=O)N2CCC3(CC2)CC3)[C@@H](C(=O)NCc2ccccc2)C1 [Compound 13, N-[(3S,4R)-3-(benzylcarbamoyl)-1-(N~2~-cyclohexyl-D-lysyl)piperidin-4-yl]-6-azaspiro[2.5]octane-6-carboxamide] | 98.3 nM
O=C(NCc1cccs1)[C@H]1CN(C(=O)[C@@H](CC2CCNCC2)NC2CCCCC2)CC[C@H]1NC(=O)N1CCC2(CC1)CC2 [Compound 20, N-{(3S,4R)-1-(N-cyclohexyl-3-piperidin-4-yl-D-alanyl)-3-[(thiophen-2-ylmethyl)carbamoyl]pi-peridin-4-yl}-6-azaspiro[2.5]octane-6-carboxamide] | 47.2 nM
Cc1cnc(C(=O)NC2CCN(C(=O)[C@@H](CC3CCCCC3)NC3CCCCC3)CC2C(=O)NCc2ccc(CN)cc2)s1 (stereo partly drawn) [Compound 2, N-[4-(aminomethyl)benzyl]-1-(N,3-dicyclohexyl-D-alanyl)-4-{[(5-methyl-1,3-thiazol-2-yl)carbonyl]amino}pi-peridine-3-carboxamide] | 73.3 nM
Cc1cnc(C(=O)N[C@@H]2CCN(C(=O)[C@@H](CC3CCCCC3)NC3CCCCC3)C[C@@H]2C(=O)NCc2ccnc(N)c2)s1 [Compound 4, (3S,4R)-N-[(2-aminopyridin-4-yl)methyl]-1-(N,3-dicyclohexyl-D-alanyl)-4-{[(5-methyl-1,3-thiazol-2-yl)carbonyl]amino}pi-peridine-3-carboxamide] | 65.1 nM
O=C(NCc1cccs1)[C@H]1CN(C(=O)[C@@H](CCCCNCC(F)(F)F)NC2CCCCC2)CC[C@H]1NC(=O)N1CCC2(CC1)CC2 [Compound 22, N-{(3S,4R)-1-[N~2~- cyclohexyl-N~6~- (2,2,2-trifluoroethyl)-D-lysyl]-3-[(thiophen-2-ylmethyl)carbamoyl]pi-peridin-4-yl}-6-azaspiro[2.5]octane-6-carboxamide] | 46.5 nM

The next lines start with the values.

IC50 | SMILES
71.6 nM | CN(C)CCCC[C@H](C(=O)N1CC[C@@H](NC(=O)c2ccc(F)c(F)c2)[C@@H](C(=O)NCc2cccs2)C1)N(C)C1CCCCC1 [Compound 5, (3S,4R)-1-(N~2~- cyclohexyl-N~2~,N~6~,N~6~- trimethyl-D-lysyl)-4-{[(3,4-difluoro-phenyl)carbonyl]amino}-N-(thiophen-2-ylmethyl)piperidine-3-carboxamide]
29.2 nM | CN(C)CCCC[C@H](C(=O)N1CC[C@@H](NC(=O)c2cc(F)c(F)cc2F)[C@@H](C(=O)NCc2cccs2)C1)N(C)C1CCCCC1 [Compound 10, (3S,4R)-1-(N~2~- cyclohexyl-N~2~,N~6~,N~6~- trimethyl-D-lysyl)-N-(thiophen-2-ylmethyl)-4-{[(2,4,5-trifluoro-phenyl)carbonyl]amino}pi-peridine-3-carboxamide]
18.7 nM | CN(C)CCCC[C@H](C(=O)N1CC[C@@H](NC(=O)c2ccc(F)cc2F)[C@@H](C(=O)NCc2cccs2)C1)N(C)C1CCCCC1 [Compound 7, (3S,4R)-1-(N~2~- cyclohexyl-N~2~,N~6~,N~6~- trimethyl-D-lysyl)-4-{[(2,4-difluoro-phenyl)carbonyl]amino}-N-(thiophen-2-ylmethyl)piperidine-3-carboxamide]
51.2 nM | CCS(=O)(=O)NCCCC[C@@H](NC1CCCCC1)C(=O)N1CC[C@@H](NC(=O)N2CCC3(CC2)CC3)[C@@H](C(=O)NCc2cccs2)C1 [Compound 21, N-{(3S,4R)-1-[N~2~- cyclohexyl-N~6~- (ethylsulfonyl)-D-lysyl]-3-[(thiophen-2-ylmethyl)carbamoyl]pi-peridin-4-yl}-6-azaspiro[2.5]octane-6-carboxamide]
22.5 nM | CN(CCCC[C@@H](NC1CCCCC1)C(=O)N1CC[C@@H](NC(=O)N2CCC3(CC2)CC3)[C@@H](C(=O)NCc2cccs2)C1)S(C)(=O)=O [Compound 32, N-{(3S,4R)-1-[N~2~- cyclohexyl-N~6~- methyl-N~6~- (methylsulfonyl)-D-lysyl]-3-[(thiophen-2-ylmethyl)carbamoyl]pi-peridin-4-yl}-6-azaspiro[2.5]octane-6-carboxamide]
109 nM | Cc1cnc(C(=O)N[C@@H]2CCN(C(=O)[C@@H](CCCCN)NC3CCCCC3)C[C@@H]2C(=O)NCc2cccs2)s1 [Compound 3, (3S,4R)-1-(N~2~- cyclohexyl-D-lysyl)-4-{[(5-methyl-1,3-thiazol-2-yl)carbonyl]amino}-N-(thiophen-2-ylmethyl)piperidine-3-carboxamide]
50.1 nM | CN(C1CCCCC1)[C@H](CCCCNS(C)(=O)=O)C(=O)N1CC[C@@H](NC(=O)N2CCC3(CC2)CC3)[C@@H](C(=O)NCc2cccs2)C1 [Compound 30, N-{(3S,4R)-1-[N~2~- cyclohexyl-N~2~- methyl-N~6~- (methylsulfonyl)-D-lysyl]-3-[(thiophen-2-ylmethyl)carbamoyl]pi-peridin-4-yl}-6-azaspiro[2.5]octane-6-carboxamide]
37.6 nM | Cc1ccc(C(=O)N[C@@H]2CCN(C(=O)[C@@H](CCCCN(C)C)N(C)C3CCCCC3)C[C@@H]2C(=O)NCc2cccs2)c(F)c1 [Compound 29, (3S,4R)-1-(N~2~- cyclohexyl-N~2~,N~6~,N~6~- trimethyl-D-lysyl)-4-{[(2-fluoro-4-methyl-phenyl)carbonyl]amino}-N-(thiophen-2-ylmethyl)piperidine-3-carboxamide]
110 nM | CN(C)CCCC[C@H](C(=O)N1CC[C@@H](NC(=O)N2CCCc3ccccc32)[C@@H](C(=O)NCc2cccs2)C1)N(C)C1CCCCC1 [Compound 27, N-{(3S,4R)-1-(N~2~- cyclohexyl-N~2~,N~6~,N~6~- trimethyl-D-lysyl)-3-[(thiophen-2-ylmethyl)carbamoyl]pi-peridin-4-yl}-3,4-dihydroquinoline-1(2H)-carboxamide]
1.5 nM | CN(C)CCCC[C@@H](NC1CCC2(CC1)CCN(Cc1ccccc1)C2)C(=O)N1CC[C@@H](NC(=O)N2CCC3(CC2)CC3)[C@@H](C(=O)NCc2cccs2)C1 (stereo partly drawn) [Compound 31, N-{(3S,4R)-1-[N~2~- (2-benzyl-2-azaspiro[4.5]dec-8-yl)-N~6~,N~6~-dimethyl-D-lysyl]-3-[(thiophen-2-ylmethyl)carbamoyl]pi-peridin-4-yl}-6-azaspiro[2.5]octane-6-carboxamide]
11.5 nM | CN(C)CCCC[C@H](C(=O)N1CC[C@@H](NC(=O)c2ccc(Cl)cc2)[C@@H](C(=O)NCc2cccs2)C1)N(C)C1CCCCC1 [Compound 9, (3S,4R)-4-{[(4-chloro-phenyl)carbonyl]amino}-1-(N~2~- cyclohexyl-N~2~,N~6~,N~6~- trimethyl-D-lysyl)-N-(thiophen-2-ylmethyl)piperidine-3-carboxamide]
108 nM | CC(=O)NCCCC[C@@H](NC1CCCCC1)C(=O)N1CC[C@@H](NC(=O)N2CCC3(CC2)CC3)[C@@H](C(=O)NCc2cccs2)C1 [Compound 24, N-{(3S,4R)-1-(N~6~- acetyl-N~2~- cyclohexyl-D-lysyl)-3-[(thiophen-2-ylmethyl)carbamoyl]pi-peridin-4-yl}-6-azaspiro[2.5]octane-6-carboxamide]
19.5 nM | CS(=O)(=O)N(CCCC[C@@H](NC1CCCCC1)C(=O)N1CC[C@@H](NC(=O)N2CCC3(CC2)CC3)[C@@H](C(=O)NCc2cccs2)C1)CC(F)(F)F [Compound 35, N-{(3S,4R)-1-[N~2~- cyclohexyl-N~6~- (methylsulfonyl)-N~6~- (2,2,2-trifluoroethyl)-D-lysyl]-3-[(thiophen-2-ylmethyl)carbamoyl]pi-peridin-4-yl}-6-azaspiro[2.5]octane-6-carboxamide]
